How the values were obtained:
[1] = Two-compartment IV PK model fitted to published human bolus psilocybin IV data; conditions: psilocin after 1 mg psilocybin IV, fitted estimate
Procedure: All analysis was performed using the software R and RStudio, with models being defined using analytical and ODE solutions.
Systemic PK parameters were derived for published human bolus psilocybin IV data and human infusion simulations were performed over a range of doses to identify infusion regimens that achieved the target profile.
Human IV PK data for psilocin after psilocybin was administered was taken from Hasler et al. “Determination of psilocin and 4-hydroxyindole-3-acetic acid in plasma by HPLC-ECD and pharmacokinetic profiles of oral and intravenous psilocybin in man”. Pharm Acta Helv. 1997 June; 72(3):175-84. Model selection was performed by assessing visual fit to data and the respective model AIC's of a one compartment and two compartment IV PK model. These systemic human PK parameters were then used for human infusion simulations by simulating the PK profiles over a range of doses. The effect of two infusion rates, a faster followed by slower infusion rate was also investigated.
Pharm Acta Helv. 1997 June; 72(3):175-84. It is assumed that the generation of psilocin is instantaneous and complete once psilocybin is absorbed.
An IV two compartment model best described the IV data from FIG. 2. A two-compartment model gave a good description of the raw data capturing the Cmax and terminal phase well, FIG. 3. […]

[2] = Solubility assessment in excipients and vehicles; assay type: physicochemical

| SMILES | k12 [1] [min⁻¹] | k21 [1] [min⁻¹] | solubility ([2]; in DMSO and NMP) | solubility as a function of pH ([2]; initial trials, 30 mg/g in aqueous vehicles) | solubility ([2]; non-micronised, in all the excipients tested) |
| --- | --- | --- | --- | --- | --- |
| CN(C)CCc1c[nH]c2cccc(O)c12 [psilocin, 4-hydroxy-N,N-dimethyltryptamine] | 0.176 | 0.0489 | good solubility | higher solubility at acidic pH | – |
| CN(C)CCc1c[nH]c2cccc(OP(=O)(O)O)c12 [psilocybin, [3-(2-dimethylaminoethyl)-1H-indol-4-yl]dihydrogen phosphate] | – | – | – | – | poor solubility |

Reference: patent US20250114383A1, “ADMINISTRATION OF A P[…] BY I[…]” (RESET PHARMACEUTICALS, INC., priority 2022, published 2025)
